Assay: DEX concentration in cochlear perilymph after intratympanic injection
Format: in vivo, guinea pig
Experimental: (1) Preparation of guinea pig models: The guinea pig model used in this example is the pigmented guinea pig model. The surgical anesthesia is given by intramuscular injection of ketamine HCl (40 mg per kg guinea pig body weight). The remaining injections are muscle relaxant Rompun® (Xylazine)(10 mg/kg guinea pig body weight), prophylactic antibiotic chloramphenicol sodium succinate (30 mg/kg guinea pig body weight), and local anesthetic Lidocaine HCl (1%, 0.5 mL).
(2) Preparation for the Guinea pig surgery and the experiment: The surgery is carried out by intratympanic injection. The guinea pig is anesthetized and operated under a dissecting surgical microscope after confirmation. A 22G needle is used to puncture the eardrum, and 200 μL of the temperature-sensitive microbubbles drug (DEX) hydrogel of the present disclosure is applied into the middle ear cavity. The experiments are performed in the ultrasound microbubble treatment group (USM), round window soaking group (RWS), and the group treated with DEX only without MBs (DEX only without MBs). The groups are as follows: USM group is injected with the temperature-sensitive microbubbles drug hydrogel at 3W energy for 1 minute. […] The concentrations of DEX are measured in the cochlear perilymph of guinea pigs on day 1 and day 7 after injection.

Question: For C[C@@H]1C[C@H]2[C@@H]3CCC4=CC(=O)C=C[C@]4(C)[C@@]3(F)[C@@H](O)C[C@]2(C)[C@@]1(O)C(=O)CO [DEX only without MBs, dexamethasone], which “DEX concentration in cochlear perilymph” value (day 1 after injection, DEX only without MBs group) is on record?
Answer: about 17.38±2.51 μg/mL

Question: And the “DEX concentration in cochlear perilymph” value (day 7 after injection, DEX only group)?
Answer: < 3 ng/mL

Reference: patent US20220273799A1, “DRUG DELIVERY COMPOSITION, METHOD FORMING THE SAME AND METHOD FOR TREATING INNER EAR DISORDERS” (National Taiwan University of Science and Technology, priority 2021, published 2022)
